# Values joined by “and” are separate entries in the source; they are usually repeats but may differ in a detail not shown here. Equal values may be shown once. Read-outs that look alike come from different tables or passages of the source.
# Assays:
# [1] = in vitro; conditions: human, hepg2-a16-cd81egfp cells
# [2] = in vitro; conditions: human, HepG2-A16-CD81EGFP cells, uninfected
# [3] = tested on: HepG2-A16-CD81EGFP cells; conditions: average of 2 wells, repeat 2
# [4] = tested on: Plasmodium falciparum Dd2 asexual blood stage parasites; test: microbe, parasite or virus in culture; design: species or system Plasmodium falciparum Dd2 in human erythrocytes; single determination (one 11-point concentration-response curve); conditions: Plasmodium falciparum, DD2, Erythrocyte, 72 h; read-out: AC50
# [5] = tested on: P. berghei-ANKA-GFP-LucCON liver stage parasites in HepG2-A16-CD81EGFP cells; test: P. berghei liver stage Pb-Luc assay, Method 1 (UCSD, 1536-well); type: cell-based, Plasmodium berghei; conditions: for activity at 1 µM / activity at 3 µM: 48 h, average of 2 wells, 1536-well plate; for activity at 1 µM: nominal 1 uM (10 mM stock), […] for 15 mM, 1.2 uM for 12 mM, 2 uM for 20 mM stock; for activity at 3 µM: nominal 3 uM (10 mM stock), 4.5 uM for 15 mM, 3.6 uM for 12 mM, 6 uM for 20 mM stock
# [6] = tested on: T1, Plasmodium falciparum Dd2-attB (parental line), asexual blood stages; test: microbe, parasite or virus in culture; design: replicate k of 3 (each line is one of three independent assays; the three lines of one compound and parasite line follow each other); conditions: n = 1; for Individual replicates / Log AC50 (M): 72 h; for AC50: Plasmodium falciparum, DD2, 72 h, read-out: Individual replicates / Log AC50 (converted)
# T1 construct: Dd2-attB, the isogenic parental line
# Outline: (§1)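 Three independent runs, compound subset only; parental vs ScDHODH line compared by two-sided Student's t-test.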
# [7] = tested on: T2, Plasmodium falciparum Dd2-attB-ScDHODH (transgenic line expressing yeast DHODH), asexual blood stages; test: organism not typed; design: replicate k of 3 (each line is one of three independent assays; the three lines of one compound and parasite line follow each other)
# T2 construct: Dd2-attB-ScDHODH, the transgenic line that expresses yeast DHODH
# Outline: as §1
# [8] = 72 h; n = 1; read-out: Individual replicates / Log AC50 (converted)
compound,measurement,setting,value
OC(CNCC1CCCO1)Cn1c2ccc(Cl)cc2c2cc(Cl)ccc21 (stereo not drawn) [MLS000525403],viability at 3 µM,[1]; % viability,90.7%
COc1cc(NC(=O)c2cc([N+](=O)[O-])ccc2NC(=O)CNC2CCCCC2C)cc(OC)c1 (stereo not drawn) [MLS000950459],viability at 3 µM,[1]; % viability,90.2%
CN1C2CCC1/C(=C/c1ccccn1)C(=O)/C2=C\c1ccccn1 [MLS000702810],viability at 3 µM,[1]; % viability,83%
COc1cnc(-c2ccccn2)nc1N(C)c1ccccc1 [MLS001166302],viability at 3 µM,[1]; % viability,90.7%
CCCCOc1ccc(NC2=NC(N)=NC3(CCCCC3)N2)cc1 [MLS000109806],viability at 3 µM,[1]; % viability,88.4%
CC(C)(C)Nc1nc(NC(C)(C)C)nc(-n2ccnc2)n1 [MLS000044025],viability at 3 µM,[1]; % viability,90.9%
Cc1ccc(/C=N/NC(=O)c2nnn(-c3nonc3N)c2-c2ccc3c(c2)OCO3)s1 [MLS001142659],viability at 3 µM,[1]; % viability,90.4%
CCOc1ccc(C(C)NC(S)=NC2CCCCC2)cc1OCC (stereo not drawn) [MLS001007596],viability at 3 µM,[1]; % viability,95.1%
COc1cccc(C2C3=C(N=c4sc(=Cc5ccccc5O)c(=O)n42)c2ccccc2CC3)c1OC (stereo not drawn) [MLS000580951],viability at 3 µM,[1]; % viability,92.9%
CCN(CC)CC(O)COc1ccccc1C(=O)CCc1ccccc1 (stereo not drawn) [MLS000107538],viability at 3 µM,[1]; % viability,104%
COc1cccc(OCCn2cc(C(=O)c3ccco3)c3ccccc32)c1 [MLS000050800],viability at 3 µM,[1],106%
COc1cc2nc(SCc3ccc(F)cc3)n3nc(CCn4c(C)nc5ccccc54)nc3c2cc1OC [NCGC00108638],viability at 3 µM,[1]; % viability,107%
O=C(NCc1ccccc1)c1onc(CSc2nc3ccccc3[nH]2)c1C(=O)NCc1ccccc1 [MLS000561090],viability at 3 µM,[1]; % viability,105%
COc1ccc(Cl)cc1NC(=O)c1cc(-c2cc(C)ccc2O)[nH]n1 [MLS000779126],viability at 3 µM,[1]; % viability,108%
O=C(NC1=C(Nc2ccc(Cl)cc2)C(=O)c2ccccc2C1=O)c1ccccc1 [MLS000375030],viability at 3 µM,[1]; % viability,97.1%
Cc1nn2c(c1-c1ccccc1-c1ccccc1)N(CC1CC1)CCC2 [NCGC00420435],viability at 3 µM,[1]; % viability,49.8%
CCN(CC)CCN1C(=O)c2ccccc2NC1c1ccc(Br)cc1 (stereo not drawn) [MLS000723891],viability at 3 µM,[1]; % viability,87.8%
COc1ccc(OC)c(-n2c(-c3cccc(O)c3)n[nH]c2=S)c1 [MLS000089016],viability at 3 µM,[1]; % viability,93.1%
O=C(Nc1ccc(C2=NCCN2)cc1)c1ccc(C(=O)Nc2ccc(C3=NCCN3)cc2)c(Cl)c1 [MLS000737368],viability at 3 µM,[1]; % viability,90%
COc1cc(O)c(C(CCN2CCCC(C)C2)c2ccc3c(c2)OCO3)c(OC)c1 (stereo not drawn) [MLS000879506],viability at 3 µM,[1]; % viability,97.8%
CC1CCN(S(=O)(=O)c2ccc3c(c2)C(=NO)c2cc(S(=O)(=O)N4CCC(C)CC4)ccc2-3)CC1 [MLS000551434],viability at 3 µM,[1]; % viability,6.86%
N#Cc1nc(Nc2cc(F)cc(F)c2)c2ncn(CC(F)F)c2n1 [MLS002471784],viability at 3 µM,[1]; % viability,90%
COc1cc(O)c(C(CCN2CCCCC2)c2ccc(N(C)C)cc2)c(OC)c1 (stereo not drawn) [MLS000879496],viability at 3 µM,[1]; % viability,92.4%
CCOc1cc(C(=O)N2CCC(CC3CC(c4ccc(Cl)cc4)=NO3)(C(=O)NCC3CCCCC3)CC2)cc(OCC)c1OCC (stereo not drawn) [MLS001143937],viability at 3 µM,[1]; % viability,93.2%
Cc1cc(C)[n+](C)n1CC(O)Cn1c2ccccc2c2ccccc21 (stereo not drawn) [MLS000711524],viability at 3 µM,[1]; % viability,104%
Cc1ccc(-c2cc3c(nn2)-c2ccccc2C3=O)cc1 [MLS000104226],viability at 3 µM,[1]; % viability,76.2%
CCCN1C(CC(C)C)=N[S+](=O)([O-])c2cc(NC(=O)c3cccs3)ccc21 [NCGC00473217-01],"viability at 48 h, 1 µM",[2],105%
same,"viability at 48 h, 3 µM",[2],106%
same,"HepG2 viability signal, 1 uM, repeat 2","[3]; nominal 1 uM (10 mM stock), […] for 15 mM, 1.2 uM for 12 mM, 2 uM for 20 mM stock",104.11%
same,"HepG2 viability signal, 3 uM, repeat 2","[3]; nominal 3 uM (10 mM stock), 4.5 uM for 15 mM, 3.6 uM for 12 mM, 6 uM for 20 mM stock",105.41%
same,AC50,[4],0.335 µM
same,Max Resp (signal direction of the dose response),"[5]; Method 1, Decrease = decreasing P. berghei viability with dose, Increase = increasing signal, Inactive = no dose response",Decrease
same,AC50,"[5]; Method 1, Hill fit, 50% of maximum activity response, read-out: AC50",0.00316 µM
same,Log AC50 (M),"[5]; Method 1, log10 of molar AC50 from Hill fit",-8.500 M
same,activity at 1 µM,"[5]; Plasmodium berghei, repeat 1, read-out: Pb-Luc signal, 1 uM, repeat 1",8.62%
same,activity at 1 µM,"[5]; Plasmodium berghei, repeat 2, read-out: Pb-Luc signal, 1 uM, repeat 2",7.89%
same,activity at 1 µM,"[5]; Plasmodium berghei, repeat 3, read-out: Pb-Luc signal, 1 uM, repeat 3",4.31%
same,activity at 3 µM,"[5]; Plasmodium berghei, repeat 1, read-out: Pb-Luc signal, 3 uM, repeat 1",2.42%
same,activity at 3 µM,"[5]; Plasmodium berghei, repeat 2, read-out: Pb-Luc signal, 3 uM, repeat 2",3.74%
same,activity at 3 µM,"[5]; Plasmodium berghei, repeat 3, read-out: Pb-Luc signal, 3 uM, repeat 3",3.33%
same,AC50,"[5]; Plasmodium berghei, Method 1, Hill fit, 50% of maximum activity response, read-out: AC50",0.00282 µM
same,AC50,"[5]; Plasmodium berghei, Method 1, log10 of molar AC50 from Hill fit, read-out: Log AC50 (converted)",0.00282 µM
same,Individual replicates / Log AC50 (M),[6],-7.2986 Log AC50 (M) and -6.9486 Log AC50 (M) and -6.9986 Log AC50 (M)
same,Individual replicates / Log AC50 (M),"[7]; 72 h, n = 1",-6.2986 Log AC50 (M)
same,AC50,[7]; [8],0.71 µM
Oc1ccc(CNc2ccc(C(F)(F)F)cc2Cl)c2cccnc12 [NCGC00183375-01],AC50,[4],10.6 µM
same,Individual replicates / Log AC50 (M),[6],-5.2986 Log AC50 (M) and -5.3486 Log AC50 (M)
same,AC50,[6],5.03 µM
same,Individual replicates / Log AC50 (M),"[7]; 72 h, n = 1",-5.2486 Log AC50 (M) and -5.0986 Log AC50 (M)
same,AC50,[7]; [8],5.03 µM
Cc1ccc(C)c(NC2=C(c3ccc(C(F)(F)F)cc3)C(=O)c3ccccc32)c1 [NCGC00107302-02],Individual replicates / Log AC50 (M),[6],-5.8486 Log AC50 (M) and -5.6486 Log AC50 (M) (2×)
same,Individual replicates / Log AC50 (M),"[7]; 72 h, n = 1",-5.0486 Log AC50 (M) and -4.9486 Log AC50 (M) and -4.9986 Log AC50 (M)
CN(C)CCCCCNC(=O)c1cccc(-c2cc(O)c3ncccc3c2)c1 [NCGC00247747-01],Individual replicates / Log AC50 (M),[6],-4.8486 Log AC50 (M)
same,AC50,[6],14.2 µM
same,AC50,[7]; [8],14.2 µM
COC(=O)c1ccc(O)c2ncc(NC3CCNC3)cc12 (stereo not drawn) [NCGC00241040-01],Individual replicates / Log AC50 (M),[6],-4.7486 Log AC50 (M) and -4.8486 Log AC50 (M)
same,AC50,[6],14.2 µM
same,Individual replicates / Log AC50 (M),[7]; 72 h; n = 1,-4.7986 Log AC50 (M)
same,AC50,[7]; [8],15.9 µM
COC(=O)c1ccc(O)c2ncc(-c3ccc(C(=O)NCCCN(C)C)cc3)cc12 [NCGC00189510-01],Individual replicates / Log AC50 (M),[6],-5.1486 Log AC50 (M) and -5.1986 Log AC50 (M)
same,AC50,[6],7.97 µM
same,Individual replicates / Log AC50 (M),"[7]; 72 h, n = 1",-4.7986 Log AC50 (M) and -5.1486 Log AC50 (M)
O=C1C(c2ccc(C(F)(F)F)cc2)=C(Nc2ccc(Cl)cc2)c2ccccc21 [NCGC00107304-02],Individual replicates / Log AC50 (M),[6],-6.0486 Log AC50 (M) and -5.9486 Log AC50 (M) (2×)
same,Individual replicates / Log AC50 (M),"[7]; 72 h, n = 1",-5.1986 Log AC50 (M) and -5.3486 Log AC50 (M) and -5.6486 Log AC50 (M)
COC(=O)c1ccnc2cc(C(OCCC3CCCN3C)c3ccccc3Cl)[nH]c12 (stereo not drawn) [NCGC00479019-01],Individual replicates / Log AC50 (M),[6],-5.1986 Log AC50 (M) and -5.1486 Log AC50 (M)
same,AC50,[6],5.03 µM
same,Individual replicates / Log AC50 (M),"[7]; 72 h, n = 1",-5.2986 Log AC50 (M) and -5.1486 Log AC50 (M)
same,AC50,[7]; [8],7.1 µM
Oc1ccc(/C=C/c2ccccc2)c2cccnc12 [NCGC00184900-01],Individual replicates / Log AC50 (M),[6],-5.2486 Log AC50 (M) and -5.2986 Log AC50 (M)
same,AC50,[6],6.33 µM
same,Individual replicates / Log AC50 (M),"[7]; 72 h, n = 1",-5.1986 Log AC50 (M) and -4.7986 Log AC50 (M)
CN(C)C(=S)SN(C)C(=O)Nc1ccccc1 [NCGC00386444-01],Individual replicates / Log AC50 (M),[6],-5.7986 Log AC50 (M)
same,AC50,[6],1.78 µM
same,Individual replicates / Log AC50 (M),"[7]; 72 h, n = 1",-5.7986 Log AC50 (M)
same,AC50,[7]; [8],2.25 µM

# From publication PMC7822874, “Chemoprotective antimalarials identified through quantitative high-throughput screening of Plasmodium blood and liver stage parasites” (Scientific Reports, 2021)
